Results published in patent US7008636B2, “2,3,5-substituted biphenyls useful in the treatment of insulin resistance and hyperglycemia” (Wyeth, priority 1998, dated 2006).
Where a name gives a salt, the structure may show the parent alone.

Row | Structure (SMILES) | melting point
1 | O=C(O)COc1c(-c2cccc(Cl)c2)cc(C(=O)NCCCC2CCCC2)cc1-c1cccc(C(F)(F)F)c1 [Example 61, [3″-Chloro-5′-(3-cyclopentyl-propylcarbamoyl)-3-trifluoromethyl-[1,1′;3′,1″]-terphenyl-2′-yloxy]acetic acid] | 173 to 175 °C
2 | COc1ccc(-c2cc(C(=O)NCCCC3CCCC3)cc(-c3ccccc3F)c2OCC(=O)O)cc1 [Example 74, [5′-(3-Cyclopentyl-propylcarbamoyl)-2-fluoro-4″-methoxy-[1,1′;3′,1″]-terphenyl-2′-yloxy]acetic acid] | > 97 °C (dec.)
3 | COc1cc(-c2ccccc2)c(OCC(=O)O)c(-c2ccccc2)c1 [Example 39, (5′-Methoxy-[1,1′;3′,1″]terphenyl-2′-yloxy)acetic acid] | 143 to 145 °C
4 | COc1ccc(-c2cc(C(=O)NCCc3ccccn3)cc(-c3cccc(C(F)(F)F)c3)c2OCC(=O)O)cc1 [Example 65, [4″-Methoxy-5′-(2-pyridin-2-yl-ethylcarbamoyl)-3-trifluoromethyl-[1,1′;3′,1″]-terphenyl-2′-yloxy]acetic acid] | > 105 °C (dec.)
5 | O=C(O)COc1c(-c2cccc(Cl)c2)cc(C(=O)N(CCc2ccccc2)Cc2ccccc2)cc1-c1cccc(C(F)(F)F)c1 [Example 57, [5′-(Benzyl-phenethyl-carbamoyl)-3″-chloro-3-trifluoromethyl-[1,1′;3′,1″]terphenyl-2′-yloxy]acetic acid] | > 75 °C (dec.)
6 | CCCCCCCCCCCCNC(=O)c1cc(-c2ccc(F)c(Cl)c2)c(OCC(=O)O)c(-c2ccc(F)c(Cl)c2)c1 (as salt: sodium) [Example 24, (3,3″-Dichloro-5′-dodecylcarbamoyl-4,4″-difluoro[1,1′;3′,1″]terphenyl(-2′-yloxy)-acetic acid sodium salt] | 140.2 to 141 °C
7 | O=C(O)COc1c(Br)cc(C(=O)NCCCCCCc2ccccc2)cc1-c1ccccc1F [Example 79, [3-Bromo-2′-fluoro-5-(6-phenyl-hexylcarbamoyl)-biphenyl-2-yloxy]acetic acid] | > 84 °C (dec.)
8 | O=C(O)COc1c(Br)cc(C(=O)NCCCc2ccccc2)cc1-c1ccccc1F [Example 73, [3-Bromo-2′-fluoro-5-(3-phenyl-propylcarbamoyl)-biphenyl-2-yloxy]acetic acid] | > 90 °C (dec.)
9 | CCCCCCCCCCCCNC(=O)c1cc(Br)c(OCCn2cnnn2)c(-c2cccc(C(F)(F)F)c2)c1 [Example 183, 5-Bromo-6-(2-tetrazol-1-yl-ethoxy)-3′-trifluoromethyl-biphenyl-3-carboxylic acid dodecylamide] | 91.5 to 92.6 °C
10 | O=C(NCCCCCCCc1ccccc1)c1cc(-c2cccc(C(F)(F)F)c2)c(OCP(=O)(O)O)c(-c2cccc(C(F)(F)F)c2)c1 (hydrate or solvate) [Example 128, [5′-(7-Phenyl-heptylcarbamoyl)-3,3″-bis-trifluoromethyl-[1,1′:3′,1″]terphenyl-2′-yloxymethyl]-phosphonic acid] | 160 to 165 °C
11 | O=C(O)COc1c(-c2cccc(Cl)c2)cc(C(=O)NCCc2ccccn2)cc1-c1cccc(C(F)(F)F)c1 [Example 58, [3″-Chloro-5′-(2-pyridin-2-yl-ethylcarbamoyl)-3-trifluoromethyl-[1,1′;3′,1″]terphenyl-2′-yloxy]acetic acid] | > 92 °C (dec.)
12 | O=C(O)COc1c(Br)cc2oc(C(=O)c3ccccc3)cc2c1Br [Example 43, (2-Benzoyl-4,6-dibromo-benzofuran-5-yloxy)acetic acid] | 179 to 181 °C
13 | O=C(O)COc1c(-c2cccc(Cl)c2)cc(C(=O)NCCCc2ccccc2)cc1-c1cccc(C(F)(F)F)c1 [Example 59, [3″-Chloro-5′-(3-phenyl-propylcarbamoyl)-3-trifluoromethyl-[1,1′;3′,1″]terphenyl-2′-yloxy]acetic acid] | > 106 °C (dec.)
14 | COc1ccc(-c2cc(C(=O)N(CCc3ccccc3)Cc3ccccc3)cc(-c3cccc(C(F)(F)F)c3)c2OCC(=O)O)cc1 [Example 67, [5′-(Benzyl-phenethyl-carbamoyl)-4″-methoxy-3-trifluoromethyl-[1,1′;3′,1″]-terphenyl-2′-yloxy]acetic acid] | > 82 °C (dec.)
15 | O=C(O)COc1c(Br)cc(C(=O)NCCCCCCCCc2ccccc2)cc1-c1ccccc1F [Example 77, [3-Bromo-2′-fluoro-5-(8-phenyl-octylcarbamoyl)-biphenyl-2-yloxy]acetic acid] | > 79 °C (dec.)
16 | CCCCCCCCCCCCNC(=O)c1cc(Br)c(OCCn2ccnn2)c(-c2cccc(C(F)(F)F)c2)c1 [Example 181, 5-Bromo-6-(2-[1,2,3]triazol-1-yl-ethoxy)-3′-trifluoromethyl-biphenyl-3-carboxylic acid dodecylamide] | 70.5 to 72.5 °C
17 | CCCCCCCCCCCCNC(=O)c1cc(Br)c(OCCNC(N)=O)c(-c2cccc(C(F)(F)F)c2)c1 [Example 187, 5-Bromo-3′-trifluoromethyl-6-(2-ureido-ethoxy)-biphenyl-3-carboxylic acid dodecylamide] | 122.5 to 125.1 °C
18 | COc1ccc(-c2cc(C(=O)NCCCCCCc3ccccc3)cc(-c3ccccc3F)c2OCC(=O)O)cc1 [Example 78, [2-Fluoro-4″-methoxy-5′-(6-phenyl-hexylcarbamoyl)-[1,1′;3′,1″]-terphenyl-2′-yloxy]acetic acid] | > 72 °C (dec.)
19 | CCCCCCCCOc1cc(-c2ccccc2)c(OCC(=O)O)c(-c2ccccc2)c1 [Example 45, (5′-Octyloxy-[1,1′;3′,1″]terphenyl-2′-yloxy)acetic acid] | 82 to 84 °C
20 | O=C(O)COc1c(-c2cccc(C(F)(F)F)c2)cc(C(=O)NCCCCCCCCc2ccccc2)cc1-c1cccc(C(F)(F)F)c1 [Example 7] | 143 to 145.4 °C
21 | COc1ccc(-c2cc(C(=O)N(CCc3ccccc3)Cc3ccccc3)cc(-c3ccccc3F)c2OCC(=O)O)cc1 [Example 68, [5′-(Benzyl-phenethyl-carbamoyl)-2-fluoro-4″-methoxy-[1,1′;3′,1″]-terphenyl-2′-yloxy]acetic acid] | > 73 °C (dec.)
22 | O=C(O)COc1c(-c2ccccc2)cc(-c2ccccc2)cc1-c1ccccc1 [Example 41, [(5′-Phenyl[1,1′:3′,1″-terphenyl]-2′-yl)oxy]acetic acid] | > 68 °C (dec.)
23 | O=C(O)COc1c(Br)cc(C(=O)NCCCC2CCCC2)cc1-c1cccc(Cl)c1 [Example 62, [3-Bromo-3′-chloro-5-(3-cyclopentyl-propylcarbamoyl)-biphenyl-2-yloxy]acetic acid] | > 135 °C (dec.)
24 | O=C(O)COc1c(Br)cc(C(=O)N(CCc2ccccc2)Cc2ccccc2)cc1-c1ccccc1F [Example 69, [5-(Benzylphenethyl-carbamoyl)-3-bromo-2′-fluoro-biphenyl-2-yloxy]acetic acid] | > 85 °C (dec.)
25 | O=C(O)COc1c(-c2cccc(Cl)c2)cc(C(=O)NCCCCCCCCc2ccccc2)cc1-c1cccc(Cl)c1 [Example 35, [3,3″-Dichloro-5′-(8-phenyl-octylcarbamoyl)-[1,1′;3′,1″]terphenyl-2′-yloxy]-acetic acid] | 165 to 167 °C
26 | COc1ccc(-c2cc(C(=O)NCCc3ccccn3)cc(-c3ccccc3F)c2OCC(=O)O)cc1 [Example 70, [2-Fluoro-4″-methoxy-5′-(2-pyridin-2-yl-ethylcarbamoyl)-[1,1′;3′,1″]-terphenyl-2′-yloxy]acetic acid] | > 102 °C (dec.)
